Measurements published in ChEMBL document CHEMBL5321192, “Synthesis and screening of novel 4-N-heterocyclic-2-aryl-6,7,8-trimethoxyquinazolines as antiproliferative and tubulin polymerization inhibitors” (Bioorg Med Chem, 2022).
The source made the active and inactive calls. The rule behind the calls is not given here.

Assays:
MCF7 [1] = test: Antiproliferative activity against human MCF7 cells assessed as cell growth inhibition incubated for 48 hrs by MTT assay; type: functional, cell-based; conditions: MCF7, 48 h
HeLa = test: Antiproliferative activity against human HeLa cells assessed as cell growth inhibition incubated for 48 hrs by MTT assay; type: functional, cell-based
[2] = Cytotoxicity against human HEK293T cells assessed as cell growth inhibition incubated for 48 hrs by MTT assay; type: toxicity, cell-based, HEK-293T
HT-29 = test: Antiproliferative activity against human HT-29 cells assessed as cell growth inhibition incubated for 48 hrs by MTT assay; type: functional, cell-based; conditions: HT-29, 48 h
MCF7 [3] = test: Induction of apoptosis in human MCF7 cells assessed as necrotic cells at 10 uM incubated for 48 hrs by Annexin V-FITC/propidium iodide staining based flow cytometric analysis (reference value: 1.3 %); type: functional
MCF7 [4] = test: Induction of cell cycle arrest in human MCF7 cells assessed as accumulation of cells at S phase at 10 uM incubated for 48 hrs by propidium iodide staining based flow cytometer analysis (reference value: 14.6 %); type: functional
MCF7 [5] = test: Induction of apoptosis in human MCF7 cells assessed as late apoptotic cells at 10 uM incubated for 48 hrs by Annexin V-FITC/propidium iodide staining based flow cytometric analysis (reference value: 3.4 %); type: functional
MCF7 [6] = test: Induction of apoptosis in human MCF7 cells assessed as viable cells at 10 uM incubated for 48 hrs by Annexin V-FITC/propidium iodide staining based flow cytometric analysis; type: functional; conditions: read-out: Activity
MCF7 [7] = test: Induction of cell cycle arrest in human MCF7 cells assessed as accumulation of cells at G2/M phase at 10 uM incubated for 48 hrs by propidium iodide staining based flow cytometer analysis (reference value: 31.9 %); type: functional
Cell membrane = test: Induction of mitochondrial membrane potential depolarization in human MCF7 cells at 10 uM incubated for 48 hrs by JC-1 staining based microplate reader assay; type: subcellular
MCF7 [8] = test: Induction of apoptosis in human MCF7 cells assessed as early apoptotic cells at 10 uM incubated for 48 hrs by Annexin V-FITC/propidium iodide staining based flow cytometric analysis (reference value: 2.4 %); type: functional
MCF7 [9] = test: Induction of cell cycle arrest in human MCF7 cells assessed as accumulation of cells at G1/G0 phase at 10 uM incubated for 48 hrs by propidium iodide staining based flow cytometer analysis (reference value: 53.8 %); type: functional
Tubulin (Sus scrofa) [10] = target: T1, Tubulin (Sus scrofa) (UniProt P02554+P02550); test: Inhibition of porcine brain tubulin polymerization at 3 uM incubated for 60 mins in presence of GTP by spectrophotometric analysis; type: tissue-based
Tubulin (Sus scrofa) [11] = target: T1, Tubulin (Sus scrofa); test: Inhibition of porcine brain tubulin polymerization incubated for 60 mins in presence of GTP by spectrophotometric analysis; type: tissue-based
Tubulin (Sus scrofa) [12] = target: T1, Tubulin (Sus scrofa); test: Inhibition of porcine brain tubulin polymerization at 100 nM incubated for 60 mins in presence of GTP by spectrophotometric analysis; type: tissue-based

T1 sequence (P02550 whole entry, looked up): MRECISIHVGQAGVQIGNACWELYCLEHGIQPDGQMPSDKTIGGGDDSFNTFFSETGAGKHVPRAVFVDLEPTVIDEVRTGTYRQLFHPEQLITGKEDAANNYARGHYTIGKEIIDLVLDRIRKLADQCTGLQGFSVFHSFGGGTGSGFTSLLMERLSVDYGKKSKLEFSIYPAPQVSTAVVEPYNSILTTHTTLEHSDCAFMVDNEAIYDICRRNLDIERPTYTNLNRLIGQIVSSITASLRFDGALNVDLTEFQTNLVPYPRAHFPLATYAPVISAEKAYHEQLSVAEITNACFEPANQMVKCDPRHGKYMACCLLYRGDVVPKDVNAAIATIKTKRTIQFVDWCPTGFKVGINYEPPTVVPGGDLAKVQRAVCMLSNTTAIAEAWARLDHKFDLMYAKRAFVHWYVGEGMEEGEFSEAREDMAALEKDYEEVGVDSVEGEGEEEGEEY
T1 sequence (P02554 whole entry, looked up): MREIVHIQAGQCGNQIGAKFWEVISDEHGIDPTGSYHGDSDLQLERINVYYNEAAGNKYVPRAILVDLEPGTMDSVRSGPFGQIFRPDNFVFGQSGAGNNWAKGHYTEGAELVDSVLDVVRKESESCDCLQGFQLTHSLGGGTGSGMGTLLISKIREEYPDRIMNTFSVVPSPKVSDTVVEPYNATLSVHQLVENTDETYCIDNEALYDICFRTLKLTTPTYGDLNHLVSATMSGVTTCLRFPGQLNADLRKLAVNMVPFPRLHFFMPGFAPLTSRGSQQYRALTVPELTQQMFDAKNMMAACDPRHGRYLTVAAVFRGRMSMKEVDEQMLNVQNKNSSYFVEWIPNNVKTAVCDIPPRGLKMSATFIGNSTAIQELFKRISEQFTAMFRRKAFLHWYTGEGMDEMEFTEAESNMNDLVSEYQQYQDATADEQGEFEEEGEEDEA

| IC50 (MCF7 [1]) [µM] | IC50 (HeLa) [µM] | IC50 (HT-29) [µM] | SMILES | IC50 at 48 h [2] [µM] | also measured |
| --- | --- | --- | --- | --- | --- |
| > 25 | > 25 | > 25 | COc1cc(-c2nc(-n3nnc4ccccc43)c3cc(OC)c(OC)c(OC)c3n2)cc(OC)c1OC | > 25 |  |
| > 25 | 10.3 | > 25 | COc1ccc(-c2nc(-n3cnnc3)c3cc(OC)c(OC)c(OC)c3n2)cc1 | > 25 |  |
| 8.33 | 13.3 | > 25 | COc1cc2c(-n3cnnc3)nc(-c3ccc(Cl)cc3)nc2c(OC)c1OC | > 25 |  |
| > 25 | > 25 | > 25 | COc1cc2c(N3CCOCC3)nc(-c3ccccc3)nc2c(OC)c1OC | > 25 |  |
| 6.37 | 17.4 | 6.76 | COc1cc2c(-n3ccnc3)nc(-c3ccc(Br)cc3)nc2c(OC)c1OC | > 25 | Activity (MCF7 [3]): 7.9%; Activity (MCF7 [4]): 8.5%; Activity (MCF7 [5]): 70.9%; viability at 10 µM (MCF7 [6]): 11.8%; Activity (MCF7 [7]): 17.7%; Activity (Cell membrane): inactive; Activity (MCF7 [8]): 9.4%; Activity (MCF7 [9]): 70.3% |
| 22.1 | 18.7 | > 25 | COc1ccc(-c2nc(-n3ccnc3)c3cc(OC)c(OC)c(OC)c3n2)cc1OC | > 25 |  |
| 13.7 | > 25 | 11.8 | COc1cc2c(-n3cnnc3)nc(-c3ccccc3C(F)(F)F)nc2c(OC)c1OC | > 25 |  |
| > 25 | > 25 | > 25 | COc1cc2c(-n3cnnc3)nc(-c3ccccc3)nc2c(OC)c1OC | > 25 |  |
| 23.4 | > 25 | 5.45 | COc1cc(-c2nc(-n3cnnc3)c3cc(OC)c(OC)c(OC)c3n2)cc(OC)c1OC | > 25 |  |
|  |  |  | CC(=O)O[C@H]1C(=O)[C@@]2(C)[C@H]([C@H](OC(=O)c3ccccc3)[C@]3(O)C[C@H](OC(=O)[C@H](O)[C@@H](NC(=O)c4ccccc4)c4ccccc4)C(C)=C1C3(C)C)[C@]1(OC(C)=O)CO[C@@H]1C[C@@H]2O |  | inhibition (Tubulin (Sus scrofa) [10]): Active |
| 16.2 | > 25 | 13 | COc1cc2c(-n3nnc4ccccc43)nc(-c3ccc(Cl)cc3)nc2c(OC)c1OC | > 25 |  |
| 18.1 | > 25 | > 25 | COc1ccc(-c2nc(-n3nnc4ccccc43)c3cc(OC)c(OC)c(OC)c3n2)cc1 | > 25 |  |
| 15.2 | 10.2 | > 25 | COc1cc2c(-n3nnc4ccccc43)nc(-c3ccc(Br)cc3)nc2c(OC)c1OC | > 25 |  |
| 2.16 | 8.53 | 10.4 | COc1cc2c(-n3ccnc3)nc(-c3ccc(Cl)cc3)nc2c(OC)c1OC | > 25 | Activity (MCF7 [3]): 4.1%; inhibition (Tubulin (Sus scrofa) [11]): Dose-Dependent Effect; Activity (MCF7 [4]): 4.9%; Activity (MCF7 [5]): 41.1%; viability at 10 µM (MCF7 [6]): 34.9%; Activity (MCF7 [7]): 82.6%; Activity (Cell membrane): Active; Activity (MCF7 [8]): 19.9%; inhibition (Tubulin (Sus scrofa) [12]): Active; Activity (MCF7 [9]): 11.5% |
| 12.2 | 14.7 | 15.2 | COc1cc2c(-n3ccnc3)nc(-c3ccccc3)nc2c(OC)c1OC | > 25 |  |
| 14.4 | > 25 | 23.1 | COc1cc2c(-n3nnc4ccccc43)nc(-c3ccccc3)nc2c(OC)c1OC | > 25 |  |
| 8.59 | > 25 | > 25 | COc1cc2c(-n3cnnc3)nc(-c3ccc(Br)cc3)nc2c(OC)c1OC | > 25 |  |

| SMILES | IC50 (MCF7 [1]) [µM] | IC50 (HeLa) [µM] | IC50 (HT-29) [µM] | IC50 at 48 h [2] [µM] | also measured |
| --- | --- | --- | --- | --- | --- |
| COc1cc2c(c(OC)c1OC)-c1ccc(OC)c(=O)cc1[C@@H](NC(C)=O)CC2 [COLCHICINE] |  | 17.8 |  | > 25 | Activity (MCF7 [3]): 2.8%; Activity (MCF7 [4]): 4.1%; Activity (MCF7 [5]): 54%; viability at 10 µM (MCF7 [6]): 27.7%; Activity (MCF7 [7]): 89.4%; Activity (MCF7 [8]): 15.5%; Activity (MCF7 [9]): 5.4% |
